Here are results for 16 molecules from PMC10810434, “Thymoquinone-protoflavone hybrid molecules as potential antitumor agents” (PLOS ONE, 2024).

In test [1] the test system is U-87 glioblastoma cells. Put plainly: In vitro antiproliferative MTT assay on U-87. It counts as cell-based, human. From the text: (§1) Gynecological cancer cell lines of human origin including breast cancer like the triple negative MDA-MB-231 and estrogen receptor positive MCF-7, […] cervical adenocarcinoma (HeLa), and human glioblastoma (U-87) cell lines were used as in vitro models to study the antiproliferative effects of the evaluated compounds. All cell lines were cultivated in T-75 flasks in a minimal essential medium (MEM) supplemented with 10% heat-inactivated fetal bovine serum (FBS), 1% antibiotic-antimycotic mixture (penicillin-streptomycin-amphotericin B) and 1% non-essential amino acids. Non-cancerous human lung fibroblast cell line (MRC-5) was maintained in low glucose Dulbecco’s Modified Eagle Medium (DMEM) supplemented with 20% heat-inactivated FBS, 1% antibiotic-antimycotic mixture and 4 mM L-glutamine. The cells were incubated at 37°C in 5% CO^2 incubator. The cells were seeded in 96-well plates at a density of 5 x 10^3 in 100 μL per well, except for the U-87 and MRC-5 that were seeded at 1 x 10^4 density and incubated at the same conditions for overnight to allow the cells’ attachment to the well’s bottom before the treatment.
(§2) The compounds were dissolved in dimethyl sulfoxide (DMSO) as 10 mM standard stock solutions and kept at -20°C with minimum light exposure. Immediately before each experiment, the stock solution was used and diluted with a culture medium to get the final concentrations. The values of half-maximal inhibitory concentration (IC50) were determined by exposure of the cells into eight different concentrations of each tested compound (0.39, 0.78, 1.56, 3.125, 6.25, 12.5, 25 and 50 μM). Temozolomide (TMZ) and cisplatin were used as positive controls in the case of U-87 and the gynecological cell lines, respectively. The negative control wells included the cells with only MEM treatment. The plates were incubated for up to 72 hours under the same abovementioned incubation conditions. The colorimetric MTT assay was used to assess the compounds’ effect on cell proliferation. Briefly, 20 μL of MTT solution ([3-(4,5-dimethylthiazol-2-yl)-2,5-diphenyltetrazolium bromide], 5 mg/mL in PBS, Duchefa Biochemie BV, Haarlem, The Netherlands) was added to each well including the negative controls and kept under the usual incubation circumstances for additional four hours. Subsequently, the media was carefully aspirated and 100 μL of DMSO was added to each well and the plates were gently shaken for 30 min to solubilize the precipitated crystals of purple formazan. Absorbance was measured at a wavelength of 545 nm using a microplate UV-VIS reader (SPECTROstar Nano, BMG Labtech GmbH, Offenburg, Germany). The same procedure was performed using MRC-5 cells to determine the cancer selectivity of the most promising test compounds.
(§3) Cell viability data were collected from two separate experiments in triplicates and evaluated using GraphPad Prism 9.5.1 (GraphPad Software Inc., San Diego, CA, USA). The half-maximal inhibitory concentration (IC50) values were determined using the log inhibitor vs normalized response nonlinear regression model. Difference between the IC50 values of a hybrid and its corresponding fragments’ experimental combination was statistically evaluated using unpaired T-test. Cancer selectivity of the most promising test compounds was characterized by calculating and comparing their selectivity index (SI). The value of the parameter derives from the ratio of IC50 value of test compound on MRC-5 cells and that on U-87 cells. The higher the value, the better the cancer selectivity of the test compound.

For test [2], the system named is HeLa. Description: In vitro antiproliferative MTT assay on HeLa. Particulars: up to 72 hours, mean of two independent measurements with three replicates each, read-out: Calculated IC50 ± SEM, HeLa. The class given is cell-based, human.
From the text: as §1, §2, §3

The subject of test [3] is MCF-7. Put plainly: In vitro antiproliferative MTT assay on MCF-7. The class given is cell-based, human. Particulars: mean of two independent measurements with three replicates each, read-out: Calculated IC50 ± SEM, MCF-7.
From the text: as §1, §2, §3

Test [4] concerns MDA-MB-231. Description: In vitro antiproliferative MTT assay on MDA-MB-231. Particulars: mean of two independent measurements with three replicates each, read-out: Calculated IC50 ± SEM, MDA-MB-231. It counts as cell-based, human.
From the text: as §1, §2, §3

In test [5] the test system is MRC-5 non-cancerous human lung fibroblast cell line. Put plainly: In vitro antiproliferative MTT assay on MRC-5 (cancer selectivity). The class given is cell-based. Particulars: for IC50: MRC5, Table 3, non-cancerous human lung fibroblasts, read-out: Calculated IC50 ± SEM, MRC-5; for Selectivity index SI = IC50 (MRC-5)/IC50 (U-87): MRC-5 vs U-87.
From the text: as §1, §2, §3

Test [6] deals with U-87 cells. Description: Combination assay: equimolar fragment mixtures vs hybrids on U-87. The class given is cell-based, human. Particulars: U-87 cells. As to the method:
as §2
Combination study was performed by treating cells with equimolar mixtures of the abovementioned fragments or their hybrids, and corresponding cell viability data were comparatively evaluated. In this bioassay, at least two separate experiments were performed, each in triplicate. The dataset was then subjected to appropriate statistical analysis. The calculated IC50 values were subsequently employed to quantitatively assess the extent of pharmacological benefit obtained through the hybridization of fragments in comparison to the cytotoxic effect produced by the experimental combination of PA or its derivatives and TQ fragments.
as §3

Setting [7] is: Homo sapiens, MTT, up to 72 hours, mean of two independent measurements with three replicates each, read-out: Calculated IC50 ± SEM, U-87.
Setting [8] is: Homo sapiens, MCF7, up to 72 hours.
The mark [9] stands for this setting: Homo sapiens, MDA-MB-231, up to 72 hours.
Setting [10] is: Homo sapiens, Table 3, U-87 glioblastoma, read-out: Calculated IC50 ± SEM, U-87 (Table 3).

Read-outs that look alike come from different tables or passages of the source.

Consider `N.N.[Cl][Pt][Cl]` [Cis, cisplatin, reference compound], for which the IC50 in test [1] (MTT, up to 72 hours, mean of two independent measurements with three replicates each, read-out: Calculated IC50 ± SEM, U-87) was 9.13 ± 1.79 µM; in test [2], 16 ± 2 µM; in test [3] (up to 72 hours), 6.55 ± 0.77 µM; in test [4] (up to 72 hours), 9.71 ± 0.51 µM.

For the molecule `CC1=CC(=O)C(C(C)C)=CC1=O` [Compound 2, 2-isopropyl-5-methylcyclohexa-2,5-diene-1,4-dione], the IC50 in test [1] (setting [7]) was 39.1 ± 3.53 µM; in test [2] (Homo sapiens, HeLa) it was above 100 µM; in test [3] (setting [8]), 24 ± 1.37 µM; in test [4] (setting [9]) it was 7.02 ± 0.17 µM.

`CC1=C(CCC(=O)O)C(=O)C(C(C)C)=CC1=O` [Compound 3, 3-(5-isopropyl-2-methyl-3,6-dioxocyclohexa-1,4-dien-1-yl)propanoic acid]: the IC50 in test [1] (setting [7]) is 77.7 ± 1.61 µM; in test [2] (Homo sapiens, HeLa) it was above 100 µM; in test [3] (setting [8]) it was above 100 µM; in test [4] (setting [9]), 38.2 ± 2.81 µM.

With `CC1=CC(=O)C(C(C)C)=C(CCC(=O)O)C1=O` [Compound 4, 3-(2-isopropyl-5-methyl-3,6-dioxocyclohexa-1,4-dien-1-yl)propanoic acid], the IC50 in test [1] (setting [7]) was 88.7 ± 5.17 µM; in test [1] (setting [10]), 88.7 ± 5.17 µM; in test [2] (Homo sapiens, HeLa) it was above 100 µM; in test [3] (setting [8]), above 100 µM; in test [4] (setting [9]), 12.4 ± 0.37 µM; in test [5] it was 40.2 ± 1.04 µM.

With `O=C1C=CC(O)(c2cc(=O)c3c(O)cc(O)cc3o2)C=C1` [Compound 6, Protoapigenone], the half-inhibitory concentration (IC50) in test [1] (setting [7]) is 1.73 ± 0.11 µM; in test [1] (setting [10]), 1.73 ± 0.11 µM; in test [2] (Homo sapiens, HeLa), 1.8 ± 0.09 µM; in test [3] (setting [8]) it was 0.66 ± 0.06 µM; in test [4] (setting [9]) it was 0.57 ± 0.07 µM; in test [5] it was 2.62 ± 0.2 µM. For the same molecule, in test [5], the “Selectivity index SI = IC50 (MRC-5)/IC50 (U-87)” value (“Selectivity index SI = IC50” for short) is 1.51.

In the case of `COC1(c2cc(=O)c3c(O)cc(O)cc3o2)C=CC(=O)C=C1` [Compound 7], the IC50 in test [1] (setting [7]) is 7.03 ± 0.11 µM; in test [2] (Homo sapiens, HeLa), 5.51 ± 0.21 µM; in test [3] (setting [8]), 3.95 ± 0.3 µM; in test [4] (setting [9]) it was 2.23 ± 0.13 µM.

Regarding `CCOC1(c2cc(=O)c3c(O)cc(O)cc3o2)C=CC(=O)C=C1` [Compound 8], the IC50 in test [1] (setting [7]) is 1.73 ± 0.06 µM; in test [1] (setting [10]), 1.73 ± 0.06 µM; in test [2] (Homo sapiens, HeLa), 2.83 ± 0.12 µM; in test [3] (setting [8]), 2.5 ± 0.11 µM; in test [4] (setting [9]) it was 1.22 ± 0.03 µM; in test [5] it was 3.79 ± 0.25 µM. The “Selectivity index SI = IC50” value in test [5] worked out at 2.19.

For the molecule `CCCCOC1(c2cc(=O)c3c(O)cc(O)cc3o2)C=CC(=O)C=C1` [Compound 9], the IC50 is 1.5 ± 0.12 µM in test [1] (setting [7]); 1.5 ± 0.12 µM in test [1] (setting [10]); 1.88 ± 0.1 µM in test [2] (Homo sapiens, HeLa); 2.01 ± 0.07 µM in test [3] (setting [8]); 0.82 ± 0.05 µM in test [4] (setting [9]); 3.56 ± 0.12 µM in test [5]. The “Selectivity index SI = IC50” value in test [5] is 2.37.

On to `CC1=C(CCC(=O)Oc2cc(O)c3c(=O)cc(C4(O)C=CC(=O)C=C4)oc3c2)C(=O)C(C(C)C)=CC1=O` [Compound 10], for which the IC50 was 6.16 ± 0.49 µM in test [1] (setting [7]); 2 ± 0.26 µM in test [2] (Homo sapiens, HeLa); 1.65 ± 0.07 µM in test [3] (setting [8]); 1.27 ± 0.04 µM in test [4] (setting [9]).

As for `COC1(c2cc(=O)c3c(O)cc(OC(=O)CCC4=C(C)C(=O)C=C(C(C)C)C4=O)cc3o2)C=CC(=O)C=C1` [Compound 11, 5-hydroxy-2-(1-methoxy-4-oxocyclohexa-2,5-dien-1-yl)-4-oxo-4H-chromen-7-yl 3-(5-isopropyl-2-methyl-3,6-dioxocyclohexa-1,4-dien-1-yl)propanoate], the IC50 is 7.63 ± 0.46 µM in test [1] (setting [7]); 3.51 ± 0.17 µM in test [2] (Homo sapiens, HeLa); 2.66 ± 0.11 µM in test [3] (setting [8]); 2.25 ± 0.13 µM in test [4] (setting [9]). The “Hybrid vs corresponding 1:1 fragment mixture, antiproliferative activity in words” value in test [6] is “synergism”.

Turning to `CCOC1(c2cc(=O)c3c(O)cc(OC(=O)CCC4=C(C)C(=O)C=C(C(C)C)C4=O)cc3o2)C=CC(=O)C=C1` [Compound 12, 2-(1-ethoxy-4-oxocyclohexa-2,5-dien-1-yl)-5-hydroxy-4-oxo-4H-chromen-7-yl 3-(5-isopropyl-2-methyl-3,6-dioxocyclohexa-1,4-dien-1-yl)propanoate], the IC50 in test [1] (setting [7]) is 8.22 ± 0.73 µM; in test [2] (Homo sapiens, HeLa), 2.35 ± 0.15 µM; in test [3] (setting [8]) it was 3.21 ± 0.07 µM; in test [4] (setting [9]), 2.15 ± 0.08 µM.

For `CCCCOC1(c2cc(=O)c3c(O)cc(OC(=O)CCC4=C(C)C(=O)C=C(C(C)C)C4=O)cc3o2)C=CC(=O)C=C1` [Compound 13, 2-(1-butoxy-4-oxocyclohexa-2,5-dien-1-yl)-5-hydroxy-4-oxo-4H-chromen-7-yl 3-(5-isopropyl-2-methyl-3,6-dioxocyclohexa-1,4-dien-1-yl)propanoate], the IC50 in test [1] (setting [7]) was 3.43 ± 0.25 µM; in test [2] (Homo sapiens, HeLa), 1.4 ± 0.25 µM; in test [3] (setting [8]), 1.68 ± 0.16 µM; in test [4] (setting [9]) it was 0.99 ± 0.05 µM.

With `COC1(c2cc(=O)c3c(O)cc(OC(=O)CCC4=C(C(C)C)C(=O)C=C(C)C4=O)cc3o2)C=CC(=O)C=C1` [Compound 15, 5-hydroxy-2-(1-methoxy-4-oxocyclohexa-2,5-dien-1-yl)-4-oxo-4H-chromen-7-yl 3-(2-isopropyl-5-methyl-3,6-dioxocyclohexa-1,4-dien-1-yl)propanoate], the IC50 in test [1] (setting [7]) was 18.9 ± 3.42 µM; in test [2] (Homo sapiens, HeLa), 6.78 ± 0.28 µM; in test [3] (setting [8]) it was 5.44 ± 1.32 µM; in test [4] (setting [9]), 3.53 ± 0.17 µM. Also, the “Hybrid vs corresponding 1:1 fragment mixture, antiproliferative activity in words” value in test [6] was “no apparent difference”.

Regarding `CCOC1(c2cc(=O)c3c(O)cc(OC(=O)CCC4=C(C(C)C)C(=O)C=C(C)C4=O)cc3o2)C=CC(=O)C=C1` [Compound 16, 2-(1-ethoxy-4-oxocyclohexa-2,5-dien-1-yl)-5-hydroxy-4-oxo-4H-chromen-7-yl 3-(2-isopropyl-5-methyl-3,6-dioxocyclohexa-1,4-dien-1-yl)propanoate], the IC50 is 6.06 ± 0.4 µM in test [1] (setting [7]); 1.71 ± 0.16 µM in test [2] (Homo sapiens, HeLa); 4.11 ± 0.34 µM in test [3] (setting [8]); 1.98 ± 0.06 µM in test [4] (setting [9]). For the same molecule, in test [6], the “Hybrid vs corresponding 1:1 fragment mixture, antiproliferative activity in words” value is listed as “no apparent difference”.

Regarding `CCCCOC1(c2cc(=O)c3c(O)cc(OC(=O)CCC4=C(C(C)C)C(=O)C=C(C)C4=O)cc3o2)C=CC(=O)C=C1` [Compound 17, 2-(1-butoxy-4-oxocyclohexa-2,5-dien-1-yl)-5-hydroxy-4-oxo-4H-chromen-7-yl 3-(2-isopropyl-5-methyl-3,6-dioxocyclohexa-1,4-dien-1-yl)propanoate], the IC50 is 8.65 ± 1.15 µM in test [1] (setting [7]); 3.08 ± 0.46 µM in test [2] (Homo sapiens, HeLa); 2.7 ± 0.09 µM in test [3] (setting [8]); 1.08 ± 0.08 µM in test [4] (setting [9]).

As to `Cn1nnc2c(C(N)=O)ncn2c1=O` [TMZ, temozolomide, reference compound], the results for the half-inhibitory concentration (IC50) in test [1] (setting [7]), in test [1] (setting [10]) and in test [5] were 388 ± 43 µM, 388 ± 43 µM and 1090 ± 45.1 µM, respectively. Also, the “Selectivity index SI = IC50” value in test [5] is given as 2.82.
